Data from patent US9334244B2, “Compounds useful as inhibitors of ATR kinase” (Vertex Pharmaceuticals Incorporated, priority 2010, dated 2016).

Each compound was assayed against T1, full-length ATR (Homo sapiens, UniProt Q13535) (assay: ATR Inhibition Assay (radioactive-phosphate incorporation)). Details: 5 nM full-length ATR, 10 μM [γ-33P]ATP, 800 μM target peptide, 25° C.; read-out: Ki value (Ki(app)) for inhibition of ATR.
T1 construct: Assays were carried out at 25° C. in the presence of 5 nM full-length ATR
T1 sequence (Q13535 whole entry): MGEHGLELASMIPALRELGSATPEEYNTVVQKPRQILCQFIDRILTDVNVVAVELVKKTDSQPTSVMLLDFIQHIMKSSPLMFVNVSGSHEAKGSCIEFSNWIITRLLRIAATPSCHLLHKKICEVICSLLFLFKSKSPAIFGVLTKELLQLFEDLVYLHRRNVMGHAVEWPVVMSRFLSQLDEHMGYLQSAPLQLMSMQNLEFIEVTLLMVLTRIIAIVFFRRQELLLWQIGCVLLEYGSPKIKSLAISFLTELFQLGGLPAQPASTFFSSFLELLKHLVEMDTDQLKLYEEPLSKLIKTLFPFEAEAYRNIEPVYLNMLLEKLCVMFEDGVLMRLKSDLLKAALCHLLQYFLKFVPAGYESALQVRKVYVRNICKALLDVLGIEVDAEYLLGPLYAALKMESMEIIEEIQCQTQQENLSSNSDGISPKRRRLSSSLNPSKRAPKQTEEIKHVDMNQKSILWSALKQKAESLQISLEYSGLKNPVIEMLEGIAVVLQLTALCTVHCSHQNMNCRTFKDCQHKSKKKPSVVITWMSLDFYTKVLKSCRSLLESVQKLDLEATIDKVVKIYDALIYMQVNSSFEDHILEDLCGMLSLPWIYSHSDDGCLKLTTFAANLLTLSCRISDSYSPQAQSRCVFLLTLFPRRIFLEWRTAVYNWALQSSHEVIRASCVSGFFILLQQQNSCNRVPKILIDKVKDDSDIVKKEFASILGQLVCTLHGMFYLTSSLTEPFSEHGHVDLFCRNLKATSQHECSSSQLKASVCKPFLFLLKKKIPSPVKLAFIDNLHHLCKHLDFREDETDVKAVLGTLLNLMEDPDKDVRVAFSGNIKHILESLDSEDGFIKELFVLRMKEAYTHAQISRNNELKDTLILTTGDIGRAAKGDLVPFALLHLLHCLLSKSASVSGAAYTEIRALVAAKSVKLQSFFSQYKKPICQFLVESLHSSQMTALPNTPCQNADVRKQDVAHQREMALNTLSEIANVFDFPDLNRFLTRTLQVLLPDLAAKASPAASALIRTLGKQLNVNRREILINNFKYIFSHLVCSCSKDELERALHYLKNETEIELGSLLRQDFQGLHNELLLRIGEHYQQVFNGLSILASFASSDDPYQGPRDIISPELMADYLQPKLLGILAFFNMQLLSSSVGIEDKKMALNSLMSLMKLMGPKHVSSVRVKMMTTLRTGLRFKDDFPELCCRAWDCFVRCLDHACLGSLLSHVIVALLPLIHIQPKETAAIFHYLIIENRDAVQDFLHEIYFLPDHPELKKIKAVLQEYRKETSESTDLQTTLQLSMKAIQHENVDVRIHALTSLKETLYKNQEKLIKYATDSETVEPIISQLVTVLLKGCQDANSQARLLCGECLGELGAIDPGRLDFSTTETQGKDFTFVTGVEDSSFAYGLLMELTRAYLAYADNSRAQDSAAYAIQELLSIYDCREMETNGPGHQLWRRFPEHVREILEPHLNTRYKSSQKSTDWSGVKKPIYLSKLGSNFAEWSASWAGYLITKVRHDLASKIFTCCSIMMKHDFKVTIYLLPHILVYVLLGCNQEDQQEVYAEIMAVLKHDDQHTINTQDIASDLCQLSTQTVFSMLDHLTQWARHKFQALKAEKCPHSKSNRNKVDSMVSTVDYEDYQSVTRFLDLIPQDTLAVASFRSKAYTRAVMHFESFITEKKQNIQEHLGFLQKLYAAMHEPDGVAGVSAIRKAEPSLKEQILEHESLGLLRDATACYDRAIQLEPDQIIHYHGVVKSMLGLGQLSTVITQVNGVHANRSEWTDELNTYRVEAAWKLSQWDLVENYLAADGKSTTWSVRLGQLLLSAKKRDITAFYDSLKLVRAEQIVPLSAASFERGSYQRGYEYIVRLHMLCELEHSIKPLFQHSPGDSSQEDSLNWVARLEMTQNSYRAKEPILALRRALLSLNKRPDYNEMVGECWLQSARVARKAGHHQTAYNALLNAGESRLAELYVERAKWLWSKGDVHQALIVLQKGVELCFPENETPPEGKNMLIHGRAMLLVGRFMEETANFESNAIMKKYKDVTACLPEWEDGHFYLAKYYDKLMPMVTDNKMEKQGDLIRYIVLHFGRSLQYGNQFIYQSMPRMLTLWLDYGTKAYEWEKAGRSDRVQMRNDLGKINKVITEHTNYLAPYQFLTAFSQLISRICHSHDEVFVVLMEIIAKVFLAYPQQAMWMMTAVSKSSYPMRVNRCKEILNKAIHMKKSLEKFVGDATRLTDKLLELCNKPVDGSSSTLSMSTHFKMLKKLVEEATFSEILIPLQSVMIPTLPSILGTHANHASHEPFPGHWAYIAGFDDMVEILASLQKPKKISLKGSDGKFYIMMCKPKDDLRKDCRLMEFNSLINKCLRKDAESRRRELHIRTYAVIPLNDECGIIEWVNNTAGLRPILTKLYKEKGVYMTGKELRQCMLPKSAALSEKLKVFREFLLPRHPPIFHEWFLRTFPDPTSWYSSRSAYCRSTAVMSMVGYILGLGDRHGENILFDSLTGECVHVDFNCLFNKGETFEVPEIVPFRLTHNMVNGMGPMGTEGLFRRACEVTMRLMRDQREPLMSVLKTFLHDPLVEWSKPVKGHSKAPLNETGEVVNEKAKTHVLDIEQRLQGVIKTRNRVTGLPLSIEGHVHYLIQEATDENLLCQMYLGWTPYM
Format: biochemical
Procedure: Compounds were screened for their ability to inhibit ATR kinase using a radioactive-phosphate incorporation assay. Assays were carried out in a mixture of 50 mM Tris/HCl (pH 7.5), 10 mM MgCl2 and 1 mM DTT. Final substrate concentrations were 10 μM [γ-^33P]ATP (3mCi 33P ATP/mmol ATP, Perkin Elmer) and 800 μM target peptide ([…]).
Assays were carried out at 25° C. in the presence of 5 nM full-length ATR. An assay stock buffer solution was prepared containing all of the reagents listed above, with the exception of ATP and the test compound of interest. 13.5 μL of the stock solution was placed in a 96 well plate followed by addition of 2 μL of DMSO stock containing serial dilutions of the test compound (typically starting from a final concentration of 15 μM with 3-fold serial dilutions) in duplicate (final DMSO concentration 7%). The plate was pre-incubated for 10 minutes at 25° C. and the reaction initiated by addition of 15 μl [γ-^33P]ATP (final concentration 10 μM).
The reaction was stopped after […] by the addition of 30 μL 0.1M phosphoric acid containing 2 mM ATP. A multiscreen phosphocellulose filter 96-well plate (Millipore, Cat no. MAPHN0B50) was pretreated with 100 μL 0.2M phosphoric acid prior to the addition of 45 μL of the stopped assay mixture. The plate was washed with 5×200 μL 0.2M phosphoric acid. After drying, 100 μL Optiphase ‘SuperMix’ liquid scintillation cocktail (Perkin Elmer) was added to the well prior to scintillation counting (1450 Microbeta Liquid Scintillation Counter, Wallac).
After removing mean background values for all of the data points, Ki(app) data were calculated from non-linear regression analysis of the initial rate data using the Prism software package (GraphPad Prism version 3.0cx for Macintosh, GraphPad Software, San Diego Calif., USA).
For `Cc1ncc(-c2ccc(S(C)(=O)=O)cc2)nc1C(=O)Nc1ccccc1` [Compound IV-1, 3-Methyl-6-(4-(methylsulfonyl)phenyl)-N-phenylpyrazine-2-carboxamide], the Ki was 0.25 to 0.5 µM.
`CC(C)S(=O)(=O)c1ccc(-c2cncc(-c3cc(-c4ccccc4)no3)n2)cc1` [Compound IV-2, 5-(6-(4-(isopropylsulfonyl)phenyl)pyrazin-2-yl)-3-phenylisoxazole] was tested, and the Ki was 0.1 to 0.25 µM.
Compound `CNCc1ccc(-c2cc(-c3cncc(-c4ccc(S(=O)(=O)C(C)C)cc4)n3)on2)cc1` [Compound IV-3, 1-(4-(5-(6-(4-(isopropylsulfonyl)phenyl)pyrazin-2-yl)isoxazol-3-yl)phenyl)-N-methylmethanamine] has a Ki of under 0.1 µM.
